Results reported in publication PMC6556873, “Rapid Covalent-Probe Discovery by Electrophile-Fragment Screening” (Journal of the American Chemical Society, 2019).
Where two headings read alike, the source gives them in different places.

Columns and labels:
in vitro [1] = assay: in vitro; parameters: species or system CCD841, HEK293; conditions: human, hb2 cells, read-out: HB-2 Cells Viability (%)
in vitro [2] = assay: in vitro; parameters: species or system HB2, CCD841; conditions: human, hek293 cells
OTUB2 (OTUB2A) = target: T1, OTUB2 (OTUB2A) (Homo sapiens, UniProt Q96DC9); parameters: Intact protein LC/MS covalent labelling, fragments in pools of five, 200 uM each, 4 °C; conditions: 24 h, 4 °C, pool of five; 200 µM; covalent
T1 construct: full length residues 1-234, E. coli BL21(DE3)-R3, His tag removed by TEV, construct 27312 Da
T1 sequence (Q96DC9 1-234): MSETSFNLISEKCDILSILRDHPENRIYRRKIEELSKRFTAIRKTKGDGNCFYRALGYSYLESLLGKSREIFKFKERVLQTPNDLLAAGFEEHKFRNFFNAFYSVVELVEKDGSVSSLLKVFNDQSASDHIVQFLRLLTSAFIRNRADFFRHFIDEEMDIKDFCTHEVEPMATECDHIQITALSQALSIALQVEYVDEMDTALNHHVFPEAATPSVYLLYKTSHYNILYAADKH

PCAF = target: T2, PCAF (Homo sapiens, UniProt Q92831); parameters: Intact protein LC/MS covalent labelling, fragments in pools of five, 200 uM each, 4 °C; conditions: 24 h, 4 °C, pool of five; 200 µM; covalent
T2 construct: gene KAT2B

NUDT7 = target: T3, NUDT7 (Homo sapiens, UniProt P0C024); parameters: Intact protein LC/MS covalent labelling, fragments in pools of five, 200 uM each, 4 °C; conditions: 24 h, 4 °C, pool of five; 200 µM; covalent
T3 construct: residues 14-235, E. coli, pNIC28-Bsa4, N-terminal His6 tag removed by TEV, construct 26672 Da

BSA = target: T4, BSA (Bos taurus, UniProt P02769); parameters: Intact protein LC/MS covalent labelling, fragments in pools of five, 200 uM each, 4 °C; conditions: 24 h, 4 °C, pool of five; 200 µM; covalent
T4 construct: gene ALB

in vitro [3] = assay: in vitro; parameters: species or system HB2, HEK293; conditions: human, ccd841 cells

T2 sequence (Q92831 whole entry, the tested form may be a part): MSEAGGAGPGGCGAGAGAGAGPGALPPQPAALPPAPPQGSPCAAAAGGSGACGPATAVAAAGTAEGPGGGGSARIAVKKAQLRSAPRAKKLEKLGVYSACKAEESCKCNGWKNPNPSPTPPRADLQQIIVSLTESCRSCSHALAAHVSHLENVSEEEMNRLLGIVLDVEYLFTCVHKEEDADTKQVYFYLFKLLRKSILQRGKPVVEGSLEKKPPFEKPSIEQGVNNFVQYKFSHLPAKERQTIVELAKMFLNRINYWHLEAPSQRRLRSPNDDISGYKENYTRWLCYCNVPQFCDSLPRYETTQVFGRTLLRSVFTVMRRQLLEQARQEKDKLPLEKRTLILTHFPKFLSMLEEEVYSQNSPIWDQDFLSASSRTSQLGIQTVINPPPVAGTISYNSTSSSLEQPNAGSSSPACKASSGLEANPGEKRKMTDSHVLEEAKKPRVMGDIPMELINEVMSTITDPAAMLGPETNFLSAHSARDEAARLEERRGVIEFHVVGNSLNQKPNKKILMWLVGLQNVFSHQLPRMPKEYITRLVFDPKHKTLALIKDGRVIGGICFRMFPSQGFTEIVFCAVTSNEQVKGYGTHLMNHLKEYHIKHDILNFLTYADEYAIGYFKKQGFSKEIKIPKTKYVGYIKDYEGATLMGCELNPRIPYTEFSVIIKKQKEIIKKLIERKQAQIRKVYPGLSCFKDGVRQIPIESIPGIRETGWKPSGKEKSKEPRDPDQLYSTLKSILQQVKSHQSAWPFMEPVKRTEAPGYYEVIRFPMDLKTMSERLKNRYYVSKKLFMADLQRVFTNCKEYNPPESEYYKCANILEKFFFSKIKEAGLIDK
T3 sequence (P0C024 14-235): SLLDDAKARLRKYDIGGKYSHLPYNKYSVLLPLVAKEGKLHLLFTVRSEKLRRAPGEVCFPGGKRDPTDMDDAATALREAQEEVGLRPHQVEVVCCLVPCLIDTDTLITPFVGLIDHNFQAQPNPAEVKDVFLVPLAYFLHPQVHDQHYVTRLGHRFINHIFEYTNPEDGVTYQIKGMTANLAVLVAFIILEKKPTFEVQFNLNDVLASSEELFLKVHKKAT
T4 sequence (P02769 whole entry, the tested form may be a part): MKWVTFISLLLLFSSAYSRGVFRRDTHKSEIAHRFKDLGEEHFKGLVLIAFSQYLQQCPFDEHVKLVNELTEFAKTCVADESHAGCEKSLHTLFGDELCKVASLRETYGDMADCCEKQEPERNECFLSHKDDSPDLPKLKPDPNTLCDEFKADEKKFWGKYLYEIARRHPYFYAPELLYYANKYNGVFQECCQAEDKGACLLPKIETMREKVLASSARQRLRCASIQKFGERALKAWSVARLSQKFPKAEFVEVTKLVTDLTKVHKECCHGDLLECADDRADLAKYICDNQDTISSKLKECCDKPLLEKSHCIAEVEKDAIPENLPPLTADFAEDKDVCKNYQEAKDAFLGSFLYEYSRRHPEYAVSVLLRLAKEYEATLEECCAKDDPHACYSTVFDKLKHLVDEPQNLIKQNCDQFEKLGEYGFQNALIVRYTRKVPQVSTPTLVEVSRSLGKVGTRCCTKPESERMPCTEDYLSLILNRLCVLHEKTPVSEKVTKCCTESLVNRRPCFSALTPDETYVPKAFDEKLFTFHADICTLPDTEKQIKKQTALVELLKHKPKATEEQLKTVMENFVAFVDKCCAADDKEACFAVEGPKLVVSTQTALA

| Compound | viability at 48 h, 10 µM (in vitro [1]) [%] | viability at 48 h, 10 µM (in vitro [2]) [%] | OTUB2 (OTUB2 (OTUB2A)) | PCAF (PCAF) | NUDT7 (NUDT7) | BSA (BSA) | viability at 48 h, 10 µM (in vitro [3]) [%] |
| --- | --- | --- | --- | --- | --- | --- | --- |
| Cl.O=C(CCl)N1CCN(Cc2ccsc2)CC1 [PCM-0102739] | 55.2 | 42.7 | 0 | 0 | 0.07 | 0 | 85.9 |
| C=CC(=O)Nc1ccc([N+](=O)[O-])cc1 [PCM-0102740] | 77.4 | 87.6 | 0 | 0 | 0.05 | 0 | 71.6 |
| O=C(CCl)Nc1cc(C(F)(F)F)ccc1N1CCOCC1 [PCM-0102741] | 102 | 118 | 0.1 | 0 | 0 | 0 | 111 |
| C=CC(=O)Nc1ccccc1[N+](=O)[O-] [PCM-0102742] | 41.2 | 65.8 | 0 | 0 | 0.41 | 0 | 66.4 |
| O=C(CCl)N(C1=CCCCC1)C1CC1 [PCM-0102745] | 96.2 | 98.7 | 0 | 0 | 0 | 0 | 88.3 |
| CC(C)N1CCC(NC(=O)CCl)CC1.Cl [PCM-0102748] | 90.9 | 97 | 0 | 0 | 0 | 0 | 90.3 |
| CC1CN(c2ccc(NC(=O)CCl)cc2)CC(C)O1 (centres unmarked) [PCM-0102750] | 65.9 | 52.7 | 0.24 | 0 | 0 | 0 | 64.7 |
| CN(CC1COc2ccccc2O1)C(=O)CCl (centres unmarked) [PCM-0102756] | 13.3 | 21.7 | 0.06 | 0 | 0.16 | 0 | 52.5 |
| NC(=O)c1ccccc1NC(=O)CCl [PCM-0102758] | 69.6 | 53.5 | 0 | 0 | 0 | 0 | 66.1 |
| Cc1ccc(S(=O)(=O)N2CCN(C(=O)CCl)CC2)cc1 [PCM-0102759] | 7.5 | 8.6 | 0 | 0 | 0.12 | 0 | 49.9 |
| O=C(CCl)N(C1CCCCC1)C1CCS(=O)(=O)C1 (centres unmarked) [PCM-0102760] | 49.7 | 17.4 | 0 | 0 | 0.08 | 0 | 31.1 |
| O=C(O)C1Cc2ccccc2CN1C(=O)CCl (centres unmarked) [PCM-0102761] | 98.1 | 95.9 | 0 | 0 | 0.21 | 0 | 91.2 |
| O=C(CCl)Nc1cc(Cl)ccc1F [PCM-0102762] | 11.4 | 2.4 | 0.13 | 0 | 0 | 0 | 49.4 |
| COC(=O)c1ccc(Cl)c(NC(=O)CCl)c1 [PCM-0102764] | 16.7 | 5.7 | 0.29 | 0 | 0.07 | 0 | 39.9 |
| C=CC(=O)N1CCC(CS(C)(=O)=O)C1 (centres unmarked) [PCM-0102765] | 98.4 | 85.1 | 0 | 0 | 0 | 0 | 101 |
| C=CC(=O)NCC1CCCCC1 [PCM-0102766] | 97.5 | 79 | 0 | 0 | 0.05 | 0 | 114 |
| C=CC(=O)NCC1C2Cc3ccccc3C12 (centres unmarked) [PCM-0102769] | 94.3 | 79.1 | 0.21 | 0 | 0 | 0 | 97.5 |
